Among the data in patent US11667651B2, “Aminopyridine derivatives as phosphatidylinositol phosphate kinase inhibitors” (HiberCell, Inc., priority 2017, dated 2023) are IC50 values, retold here.

Common to all, as to assay type: biochemical
Assay [1] has as its target T1, PIP4K2A (Homo sapiens, UniProt P48426).
T1 sequence (P48426 1-406): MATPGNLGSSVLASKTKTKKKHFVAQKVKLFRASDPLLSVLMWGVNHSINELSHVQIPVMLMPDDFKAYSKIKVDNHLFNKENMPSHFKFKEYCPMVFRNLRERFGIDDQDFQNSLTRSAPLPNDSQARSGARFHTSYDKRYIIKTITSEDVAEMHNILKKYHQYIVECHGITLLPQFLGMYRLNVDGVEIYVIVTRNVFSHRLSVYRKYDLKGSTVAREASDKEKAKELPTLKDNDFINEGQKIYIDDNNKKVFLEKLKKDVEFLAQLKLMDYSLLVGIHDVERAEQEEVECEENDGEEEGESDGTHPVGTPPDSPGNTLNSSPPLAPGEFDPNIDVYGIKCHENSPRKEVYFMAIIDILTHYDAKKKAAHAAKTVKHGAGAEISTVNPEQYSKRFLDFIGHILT
As to the kind of experiment: ADP-glo kinase assay PIP4K 2A (Table 3). More on the design: made in house; host or cells: E. coli. The note with it: compounds listed under IC50 bins. The method, boiled down: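 ADP-Glo luminescence detected ADP after 1 h RT reaction started by ATP (60 μM solution) on full-length PIP4K2A (4 nM in mix) and PI(5)P diC8 (100 μM in mix), preceded by 15 min enzyme-compound preincubation in MOPS pH 7.2/25 mM MgCl2. Percent inhibition versus DMSO over 10 concentrations fitted for IC50.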

The target of a further assay is T2, PIP4K2B (Homo sapiens, UniProt P78356).
T2 construct: made in house; host or cells: E. coli
T2 sequence (P78356 1-416): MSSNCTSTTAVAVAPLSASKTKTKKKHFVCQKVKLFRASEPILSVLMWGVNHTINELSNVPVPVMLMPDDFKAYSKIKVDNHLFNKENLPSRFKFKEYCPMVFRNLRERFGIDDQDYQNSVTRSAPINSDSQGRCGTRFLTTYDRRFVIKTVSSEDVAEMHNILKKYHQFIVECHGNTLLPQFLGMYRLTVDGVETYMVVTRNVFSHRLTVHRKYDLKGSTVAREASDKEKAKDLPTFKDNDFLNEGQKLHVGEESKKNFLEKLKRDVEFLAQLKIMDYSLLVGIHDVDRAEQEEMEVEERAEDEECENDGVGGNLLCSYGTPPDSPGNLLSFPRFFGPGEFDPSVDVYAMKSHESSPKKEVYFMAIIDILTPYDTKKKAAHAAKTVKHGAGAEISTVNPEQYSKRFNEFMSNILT
As to the kind of experiment: Trans-FI P kinase assay PIP4K2B (Table 4). The settings on record: compounds listed under IC50 bins; read-out: Trans-FI P kinase assays: PIP4K2B IC50. The method, boiled down: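 Transcreener FI detection (Ex 584/Em 623) of GDP, converted via calibration curve, gives IC50 from residual activity versus log concentration (highest 4.8 μM). Reaction: 80 μM PI5P plus DOPE carrier, 100 μM GTP, 5 nM GST-tagged enzyme, pH 7.3 HEPES with MgCl2 and 5% DMSO, 2 h after 1 h enzyme-compound preincubation at 27° C.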

The target of assay [2] is T1, PIP4K2A. As to the kind of experiment: Kinase Assay PIP4K2 A (Table 2). More on the design: 4 nM PIP4K2A (full length protein, SignalChem); purchased SignalChem. The settings on record: compounds listed under IC50 bins. The method, boiled down: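 ADP-Glo luminescent read-out after 1 h room-temperature kinase reaction, started with 60 μM ATP solution following 15 min compound pre-incubation. Enzyme/substrate mix: 4 nM full-length PIP4K2A plus 100 μM PI(5)P diC8; buffer MOPS pH 7.2 with 25 mM MgCl2 and Tween 20. IC50 from 10-point, 3-fold titrations normalized to DMSO.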

Turning to `Cc1nc(Nc2cnc3c(c2)N2C(=O)CC[C@H]2CO3)ccc1-c1ccc(N2CCCC2=O)cc1` [Example 190, (S)-2-((6-methyl-5-(4-(2-oxopyrrolidin-1-yl)phenyl)pyridin-2-yl)amino)-6,6a,7,8-tetrahydro-9H-pyrido[2,3-b]pyrrolo[1,2-d][1,4]oxazin-9-one], the half-inhibitory concentration (IC50) on PIP4K2A [1] lay in the range of 10 to 100 nM; at PIP4K2B, 10 to 100 nM; against PIP4K2A [2], 1 to 10 nM.

As for `CN(C)C(=O)c1ccc(-c2ccc(Nc3cncc(N4CCN(Cc5cccc(NC(=O)CCc6cccc(N)c6)c5)C4=O)c3)nc2)cc1` [Example 224, 4-(6-((5-(3-(3-(3-(3-aminophenyl)propanamido)benzyl)-2-oxoimidazolidin-1-yl)pyridin-3-yl)amino)pyridin-3-yl)-N,N-dimethylbenzamide], the results for the IC50 against PIP4K2A [1], on PIP4K2B and against PIP4K2A [2] were 1 to 10 nM, 10 to 100 nM and 1 to 10 nM, respectively.

With `CN(C)C(=O)c1ccc(-c2ccc(Nc3cncc(NC(=O)CCc4cccc(NC(=O)C5CCNCC5)c4)c3)nc2)cc1` [Example 109, N-(3-(3-((5-((5-(4-(dimethylcarbamoyl)phenyl)pyridin-2-yl)amino)pyridin-3-yl)amino)-3-oxopropyl)phenyl)piperidine-4-carboxamide], the values for the IC50 on PIP4K2A [1], on PIP4K2B and at PIP4K2A [2] were 1 to 10 nM, 10 to 100 nM and 1 to 10 nM, respectively.

As to `CC(=O)N1CCOc2ncc(Nc3ccc(-c4ccc(N5CCCC5=O)cc4)cn3)cc21` [Example 86, 1-(4-(6-((1-acetyl-2,3-dihydro-1H-pyrido[2,3-b][1,4]oxazin-7-yl)amino)pyridin-3-yl)phenyl)pyrrolidin-2-one], the IC50 against PIP4K2A [1] is 10 to 100 nM; on PIP4K2B, 10 to 100 nM; on PIP4K2A [2], 1 to 10 nM.

On to `C[C@H](c1ccccc1)N1CCN(c2cncc(Nc3ccc(-c4ccc(C(=O)N(C)C)cc4)cn3)c2)C1=O` [Example 81, (R)—N,N-dimethyl-4-(6-((5-(2-oxo-3-(1-phenylethyl)imidazolidin-1-yl)pyridin-3-yl)amino)pyridin-3-yl)benzamide], for which the half-maximal inhibitory concentration (IC50) on PIP4K2A [1] is 1 to 10 nM; at PIP4K2B, 10 to 100 nM; on PIP4K2A [2], at most 1 nM.

Consider `O=C1CCCN1c1ccc(-c2cnc(Nc3cnc4c(c3)N3C(=O)CC[C@H]3CO4)cn2)cc1` [Example 162, (S)-2-((5-(4-(2-oxopyrrolidin-1-yl)phenyl)pyrazin-2-yl)amino)-6,6a,7,8-tetrahydro-9H-pyrido[2,3-b]pyrrolo[1,2-d][1,4]oxazin-9-one], for which the IC50 at PIP4K2A [1], on PIP4K2B and at PIP4K2A [2] was 10 to 100 nM in each case.

Consider `CN(C)C(=O)c1ccc(-c2ccc(Nc3cncc(N4CCN(Cc5ccc(NC(=O)CCc6cccc(N)c6)cc5)C4=O)c3)nc2)cc1` [Example 230, 4-(6-((5-(3-(4-(3-(3-aminophenyl)propanamido)benzyl)-2-oxoimidazolidin-1-yl)pyridin-3-yl)amino)pyridin-3-yl)-N,N-dimethylbenzamide], for which the IC50 is 1 to 10 nM on PIP4K2A [1], 10 to 100 nM at PIP4K2B and 1 to 10 nM on PIP4K2A [2].

In the case of `CN(C)C/C=C/C(=O)NCC(=O)Nc1cccc(CCC(=O)Nc2cncc(Nc3ccc(-c4ccc(C(=O)N(C)C)cc4)cn3)c2)c1` [Example 108, (E)-4-(6-((5-(3-(3-(2-(4-(dimethylamino)but-2-enamido)acetamido)phenyl)propanamido)pyridin-3-yl)amino)pyridin-3-yl)-N,N-dimethylbenzamide], the IC50 is 100 to 1000 nM on PIP4K2A [1], above 1000 nM at PIP4K2B and 100 to 1000 nM against PIP4K2A [2].

`CN(C)C(=O)c1ccc(-c2ccc(Nc3cnc4c(c3)N(C(=O)CO)CCO4)nc2)cc1` [Example 89, 4-(6-((1-(2-hydroxyacetyl)-2,3-dihydro-1H-pyrido[2,3-b][1,4]oxazin-7-yl)amino)pyridin-3-yl)-N,N-dimethylbenzamide]: the half-inhibitory concentration (IC50) is 10 to 100 nM on PIP4K2A [1], 10 to 100 nM on PIP4K2B and 1 to 10 nM on PIP4K2A [2].

Take `O=C1CCCN1c1ccc(-c2ccc(Nc3cnc4c(c3)OCCO4)nc2)cc1` [Example 87, 1-(4-(6-((2,3-dihydro-[1,4]dioxino[2,3-b]pyridin-7-yl)amino)pyridin-3-yl)phenyl)pyrrolidin-2-one]: the IC50 against PIP4K2A [1] is 100 to 1000 nM; at PIP4K2B it was 10 to 100 nM; against PIP4K2A [2], 10 to 100 nM.

As for `CN(C)C/C=C/C(=O)Nc1ccc(CCC(=O)Nc2cncc(Nc3ccc(-c4ccc(C(=O)N(C)C)cc4)cn3)c2)cc1` [Example 119, (E)-4-(6-((5-(3-(4-(4-(dimethylamino)but-2-enamido)phenyl)propanamido)pyridin-3-yl)amino)pyridin-3-yl)-N,N-dimethylbenzamide], the IC50 fell in the range of 10 to 100 nM at PIP4K2A [1], 10 to 100 nM on PIP4K2B and 1 to 10 nM against PIP4K2A [2].

`COc1cncc(C(=O)Nc2cncc(Nc3ccc(-c4ccc(N5CCCC5=O)cc4)cn3)c2)c1` [Example 239, 5-methoxy-N-(5-((5-(4-(2-oxopyrrolidin-1-yl)phenyl)pyridin-2-yl)amino)pyridin-3-yl)nicotinamide]: the IC50 at PIP4K2A [1] lay in the range of 10 to 100 nM; at PIP4K2B, 10 to 100 nM; against PIP4K2A [2], 1 to 10 nM.

Regarding `CN(C)C/C=C/C(=O)NCCCCCC(=O)Nc1cccc(CCC(=O)Nc2cncc(Nc3ccc(-c4ccc(C(=O)N(C)C)cc4)cn3)c2)c1` [Example 112, (E)-4-(6-((5-(3-(3-(6-(4-(dimethylamino)but-2-enamido)hexanamido)phenyl)propanamido)pyridin-3-yl)amino)pyridin-3-yl)-N,N-dimethylbenzamide], the IC50 on PIP4K2A [1] was 100 to 1000 nM; on PIP4K2B, above 1000 nM; on PIP4K2A [2], 100 to 1000 nM.

As to `CC(O)C(=O)N1CCOc2ncc(Nc3ccc(-c4ccc(N5CCCC5=O)cc4)cn3)cc21` (stereo not drawn) [Example 234, 1-(4-(6-((1-(2-hydroxypropanoyl)-2,3-dihydro-1H-pyrido[2,3-b][1,4]oxazin-7-yl)amino)pyridin-3-yl)phenyl)pyrrolidin-2-one], the IC50 against PIP4K2A [1] is 1 to 10 nM; at PIP4K2B, 10 to 100 nM; at PIP4K2A [2] it was 1 to 10 nM.

Turning to `O=C1CCCN1c1ccc(-c2ccc(Nc3cncc(N4CCN(Cc5cocn5)C4=O)c3)nc2)cc1` [Example 165, 1-(oxazol-4-ylmethyl)-3-(5-((5-(4-(2-oxopyrrolidin-1-yl)phenyl)pyridin-2-yl)amino)pyridin-3-yl)imidazolidin-2-one], the IC50 against PIP4K2A [1], on PIP4K2B and at PIP4K2A [2] was 10 to 100 nM each time.

For the compound `CN(C)C(=O)c1ccc(-c2ccc(Nc3cncc(NC(=O)c4cccc5[nH]cnc45)c3)nc2)cc1` [Example 232, N-(5-((5-(4-(dimethylcarbamoyl)phenyl)pyridin-2-yl)amino)pyridin-3-yl)-1H-benzo[d]imidazole-7-carboxamide], the values for the IC50 against PIP4K2A [1], at PIP4K2B and against PIP4K2A [2] were 10 to 100 nM, 10 to 100 nM and 1 to 10 nM, respectively.

Turning to `CN(C)C(=O)c1ccc(-c2ccc(Nc3cncc(NC(=O)c4cccc(NC(=O)CCOCCOCCN)c4)c3)nc2)cc1` [Example 113, 4-(6-((5-(3-(3-(2-(2-aminoethoxy)ethoxy)propanamido)benzamido)pyridin-3-yl)amino)pyridin-3-yl)-N,N-dimethylbenzamide], the 50% inhibitory concentration (IC50) at PIP4K2A [1], at PIP4K2B and against PIP4K2A [2] was 10 to 100 nM throughout.

As for `O=C1CCCN1c1ccc(-c2ccc(Nc3cncc(N4CCN(Cc5cscn5)C4=O)c3)nc2)cc1` [Example 163, 1-(5-((5-(4-(2-oxopyrrolidin-1-yl)phenyl)pyridin-2-yl)amino)pyridin-3-yl)-3-(thiazol-4-ylmethyl)imidazolidin-2-one], the IC50 is 1 to 10 nM at PIP4K2A [1], 10 to 100 nM at PIP4K2B and 1 to 10 nM against PIP4K2A [2].
